For 34 compounds, IC50 results are on record in patent US8906930B2, “Quinazoline derivatives” (Merck Patent GmbH, priority 2009, dated 2014).

The target in this experiment is T1, Recombinant human HSP90α (Homo sapiens, UniProt P07900).
T1 construct: host or cells: E. coli
Put plainly: HSP90 radioligand filter binding test ([3H]17AAG competition). The settings on record: radioligand [3H]17AAG 0.08 μM; HSP90 1.5 μg/assay; 22° C., 30 min; read-out: HSP90 inhibition IC50. An excerpt:
The binding of geldanamycin or 17-allylamino-17-demethoxygeldanamycin (17AAG) to HSP90 and competitive inhibition thereof can be utilised in order to determine the inhibitory activity of the compounds according to the invention (Carreras et al. 2003, Chiosis et al. 2002).
In the specific case, a radioligand filter binding test is used. The radioligand used here is tritium-labelled 17-allylaminogeldanamycin, [3H]17AAG. This filter binding test allows a targeted search for inhibitors which interfere with the ATP binding site.
Recombinant human HSP90α (E. coli expressed, 95% purity);
[3H]17AAG (17-allylaminogeldanamycin, [allylamino-2,3-^3H. Specific activity: 1.11×10^12 Bq/mmol (Moravek, MT-1717);
HEPES filter buffer (50 mM HEPES, pH 7.0, 5 mM MgCl2, BSA 0.01%) Multiscreen FB (1 μm) filter plate (Millipore, MAFBNOB 50).
The 96-well microtitre filter plates are firstly irrigated and coated with 0.1% of polyethylenimine.
The test is carried out under the following conditions:
Reaction temperature 22° C.
Reaction time: 30 min., shaking at 800 rpm
50 mM HEPES HCl, pH 7.0, 5 mM MgCl2, 0.01% (w/v) of BSA
At the end of the reaction, the supernatant in the filter plate is removed by suction with the aid of a vacuum manifold (Multiscreen Separation System, Millipore), and the filter is washed twice.
The filter plates are then measured in a beta counter (Microbeta, Wallac) with scintillator (Microscint 20, Packard).
“% of control” is determined from the “counts per minutes” values, and the IC-50 value of a compound is calculated therefrom.
Consider `CCOC(=O)Cc1ccc2nc(N)nc(C(=O)N3Cc4ccccc4C3)c2c1` [Compound A1, Ethyl 2-[2-amino-4-(isoindoline-2-carbonyl)quinazolin-6-yl]acetate], for which the concentration for half-maximal inhibition (IC50) (commonly the midpoint of a concentration-inhibition curve) was 10 to 1000 nM.
Turning to `Nc1nc(C(=O)N2Cc3ccccc3C2)c2cc(CC(=O)O)ccc2n1` [Compound A2, 2-[2-Amino-4-(isoindoline-2-carbonyl)quinazolin-6-yl]acetic acid], the IC50 lay within 1000 to 10000 nM.
Consider `NC(=O)Cc1ccc2nc(N)nc(C(=O)N3Cc4ccccc4C3)c2c1` [Compound A3, 2-[2-amino-4-(isoindoline-2-carbonyl)quinazolin-6-yl]acetamide], for which the IC50 lay within 1000 to 10000 nM.
`NC(=O)C(CCC(F)F)c1ccc2nc(N)nc(C(=O)N3Cc4ccccc4C3)c2c1` (stereo not shown) [Compound A4]: the IC50 lay within 10 to 1000 nM.
Regarding `NC(=O)C1(c2ccc3nc(N)nc(C(=O)N4Cc5ccccc5C4)c3c2)CCC1` [Compound A5, 1-[2-amino-4-(isoindoline-2-carbonyl)quinazolin-6-yl]cyclobutane-carboxamide], the IC50 was in the range of 10 to 1000 nM.
Next, `CCNC(=O)Cc1ccc2nc(N)nc(C(=O)N3Cc4ccccc4C3)c2c1` [Compound A6, 2-[2-amino-4-(isoindoline-2-carbonyl)quinazolin-6-yl]-N-ethylacetamide]: 1000 to 10000 nM; `CC(C)(C)NC(=O)Cc1ccc2nc(N)nc(C(=O)N3Cc4ccccc4C3)c2c1` [Compound A7, 2-[2-amino-4-(isoindoline-2-carbonyl)quinazolin-6-yl]-N-tert-butylacetamide]: 1000 to 10000 nM; `CCN(CC)C(=O)Cc1ccc2nc(N)nc(C(=O)N3Cc4ccccc4C3)c2c1` [Compound A8, 2-[2-amino-4-(isoindoline-2-carbonyl)quinazolin-6-yl]-N,N-diethylacetamide]: 1000 to 10000 nM.
In the case of `CN(C)C(=O)Cc1ccc2nc(N)nc(C(=O)N3Cc4ccccc4C3)c2c1` [Compound A9, 2-[2-Amino-4-(isoindoline-2-carbonyl)quinazolin-6-yl]-N,N-dimethylacetamide], the IC50 was 1000 to 10000 nM.
On to `CCN(C)C(=O)Cc1ccc2nc(N)nc(C(=O)N3Cc4ccccc4C3)c2c1` [Compound A10, 2-[2-Amino-4-(isoindoline-2-carbonyl)quinazolin-6-yl]-N-ethyl-N-methylacetamide], for which the IC50 was 1000 to 10000 nM.
Next, `CN(CCO)C(=O)Cc1ccc2nc(N)nc(C(=O)N3Cc4ccccc4C3)c2c1` [Compound A11, 2-[2-Amino-4-(isoindoline-2-carbonyl)quinazolin-6-yl]-N-(2-hydroxyethyl)-N-methylacetamide]: 1000 to 10000 nM.
`CCN(CCO)C(=O)Cc1ccc2nc(N)nc(C(=O)N3Cc4ccccc4C3)c2c1` [Compound A12, 2-[2-Amino-4-(isoindoline-2-carbonyl)quinazolin-6-yl]-N-(2-hydroxyethyl)-N-ethylacetamide]: the IC50 was 1000 to 10000 nM.
`Nc1nc(C(=O)N2Cc3ccccc3C2)c2cc(CC(=O)N3CCCC3)ccc2n1` [Compound A13, 2-[2-Amino-4-(isoindoline-2-carbonyl)quinazolin-6-yl]-1-pyrrolidin-1-ylethanone]: the IC50 lay within 1000 to 10000 nM.
On to `CC1CCCN1C(=O)Cc1ccc2nc(N)nc(C(=O)N3Cc4ccccc4C3)c2c1` (stereo not shown) [Compound A14, 2-[2-Amino-4-(isoindoline-2-carbonyl)quinazolin-6-yl]-1-(2-methylpyrrolidin-1-yl)ethanone], for which the IC50 was 1000 to 10000 nM.
As to `CC1CCC(C)N1C(=O)Cc1ccc2nc(N)nc(C(=O)N3Cc4ccccc4C3)c2c1` (stereo not shown) [Compound A15, 2-[2-Amino-4-(isoindoline-2-carbonyl)quinazolin-6-yl]-1-(2,5-dimethylpyrrolidin-1-yl)ethanone], the IC50 lay within 1000 to 10000 nM.
On to `CNC(=O)Cc1ccc2nc(N)nc(C(=O)N3Cc4ccccc4C3)c2c1` [Compound A16, 2-[2-Amino-4-(isoindoline-2-carbonyl)quinazolin-6-yl]-N-methylacetamide], for which the IC50 fell in the range of 1000 to 10000 nM.
For the compound `CN1CCN(C(=O)Cc2ccc3nc(N)nc(C(=O)N4Cc5ccccc5C4)c3c2)CC1` [Compound A17, 2-[2-Amino-4-(isoindoline-2-carbonyl)quinazolin-6-yl]-1-(4-methylpiperazin-1-yl)ethanone], the IC50 lay in the range of 1000 to 10000 nM.
Consider `Nc1nc(C(=O)N2Cc3ccccc3C2)c2cc(CC(=O)N3CCNCC3)ccc2n1` [Compound A18, 2-[2-amino-4-(isoindoline-2-carbonyl)quinazolin-6-yl]-1-piperazin-1-ylethanone], for which the IC50 was more than 10000 nM.
The figure for `CN(Cc1cncn1C)C(=O)Cc1ccc2nc(N)nc(C(=O)N3Cc4ccccc4C3)c2c1` [Compound A19] is 1000 to 10000 nM; for `CC(C)(C)NC(=O)C1(c2ccc3nc(N)nc(C(=O)N4Cc5ccccc5C4)c3c2)CC1` [Compound A20, 1-[2-Amino-4-(isoindoline-2-carbonyl)quinazolin-6-yl]-N-tert-butylcyclopropanecarboxamide] it is 10 to 1000 nM; for `CCNC(=O)C1(c2ccc3nc(N)nc(C(=O)N4Cc5ccccc5C4)c3c2)CC1` [Compound A21, 1-[2-Amino-4-(isoindoline-2-carbonyl)quinazolin-6-yl]-N-ethylcyclopropanecarboxamide] it is 10 to 1000 nM.
The figure for `CN(C)C(=O)C1(c2ccc3nc(N)nc(C(=O)N4Cc5ccccc5C4)c3c2)CC1` [Compound A22, 1-[2-Amino-4-(isoindoline-2-carbonyl)quinazolin-6-yl]-N,N-dimethylcyclopropanecarboxamide] is 1000 to 10000 nM; for `CCN(C)C(=O)C1(c2ccc3nc(N)nc(C(=O)N4Cc5ccccc5C4)c3c2)CC1` [Compound A23, 1-[2-Amino-4-(isoindoline-2-carbonyl)quinazolin-6-yl]-N-ethyl-N-methylcyclopropanecarboxamide] it is 1000 to 10000 nM.
`CCN(CC)C(=O)C1(c2ccc3nc(N)nc(C(=O)N4Cc5ccccc5C4)c3c2)CC1` [Compound A24, 1-[2-Amino-4-(isoindoline-2-carbonyl)quinazolin-6-yl]-N,N-diethylcyclopropanecarboxamide]: the IC50 was 1000 to 10000 nM.
`CN(CCO)C(=O)C1(c2ccc3nc(N)nc(C(=O)N4Cc5ccccc5C4)c3c2)CC1` [Compound A25, 1-[2-Amino-4-(isoindoline-2-carbonyl)quinazolin-6-yl]-N-(2-hydroxyethyl)-N-methylcyclopropanecarboxamide]: the IC50 was in the range of 1000 to 10000 nM.
Take `CCN(CCO)C(=O)C1(c2ccc3nc(N)nc(C(=O)N4Cc5ccccc5C4)c3c2)CC1` [Compound A26, 1-[2-Amino-4-(isoindoline-2-carbonyl)quinazolin-6-yl]-N-(2-hydroxyethyl)-N-ethylcyclopropanecarboxamide]: the IC50 fell in the range of 1000 to 10000 nM.
As to `Nc1nc(C(=O)N2Cc3ccccc3C2)c2cc(C3(C(=O)N4CCCC4)CC3)ccc2n1` [Compound A27, [2-Amino-6-[1-(pyrrolidine-1-carbonyl)cyclopropyl]quinazolin-4-yl]isoindolin-2-ylmethanone], the IC50 was in the range of 1000 to 10000 nM.
On to `CCN(CCN(C)C)C(=O)C1(c2ccc3nc(N)nc(C(=O)N4Cc5ccccc5C4)c3c2)CC1` [Compound A28, 1-[2-Amino-4-(isoindoline-2-carbonyl)quinazolin-6-yl]-N-(2-dimethylaminoethyl)-N-ethylcyclopropanecarboxamide], for which the IC50 lay within 1000 to 10000 nM.
Consider `CC(C)(C)NC(=O)C1(c2ccc3nc(N)nc(C(=O)N4Cc5ccccc5C4)c3c2)CCC1` [Compound A29, 1-[2-Amino-4-(isoindoline-2-carbonyl)quinazolin-6-yl]-N-tert-butylcyclobutanecarboxamide], for which the IC50 lay in the range of 10 to 1000 nM.
In the case of `CNC(=O)C1(c2ccc3nc(N)nc(C(=O)N4Cc5ccccc5C4)c3c2)CCC1` [Compound A31, 1-[2-Amino-4-(isoindoline-2-carbonyl)quinazolin-6-yl]-N-methylcyclobutanecarboxamide], the IC50 fell in the range of 10 to 1000 nM.
For `CCCNC(=O)C1(c2ccc3nc(N)nc(C(=O)N4Cc5ccccc5C4)c3c2)CCC1` [Compound A32, 1-[2-Amino-4-(isoindoline-2-carbonyl)quinazolin-6-yl]-N-propylcyclobutanecarboxamide], the IC50 is 10 to 1000 nM.
On to `NC(=O)CNC(=O)C1(c2ccc3nc(N)nc(C(=O)N4Cc5ccccc5C4)c3c2)CCC1` [Compound A33, 1-[2-Amino-4-(isoindoline-2-carbonyl)quinazolin-6-yl]-N-(2-amino-2-oxoethyl)cyclobutanecarboxamide], for which the IC50 was in the range of 10 to 1000 nM.
As for `CC(C)CNC(=O)C1(c2ccc3nc(N)nc(C(=O)N4Cc5ccccc5C4)c3c2)CCC1` [Compound A34, 1-[2-Amino-4-(isoindoline-2-carbonyl)quinazolin-6-yl]-N-isobutylcyclobutanecarboxamide], the IC50 lay within 10 to 1000 nM.
As to `CC(C)(C)NC(=O)C(C)(C)c1ccc2nc(N)nc(C(=O)N3Cc4ccccc4C3)c2c1` [Compound A35, 2-[2-Amino-4-(isoindoline-2-carbonyl)quinazolin-6-yl]-N-tert-butyl-2-methylpropanamide], the IC50 was in the range of 10 to 1000 nM.
